In patent US9504752B2, “Sterilizer, oral cavity sterilizer, sterilization method, sterilization apparatus, and sterilizer evaluation method” (AZ CO., LTD., priority 2011, dated 2016) one finds sterilization effect data, which are given here for one compound.

The experiment deals with Streptococcus aureus. Nature of the experiment: Sterilization effect of hydrogen peroxide photolysis (laser 400±20 nm) with catalase activity inhibitor, viable count on BHI agar. Format: cell-based. Particulars: only hydrogen peroxide, no laser, no scutellaria, H(+)L(−)O(−); FIG. 4. As for the experimental part: An experiment for examining an effect of the catalase activity inhibitor of enhancing a sterilization effect was conducted. In the experiment, […] which is a catalase-positive bacterium was used as a target of the sterilization. A bacterium suspension having a concentration of 10^7 cells/mL was prepared by using the bacterium and saline, and the suspension was used for the experiment. A semiconductor laser (product name: […] Experiment samples were prepared by using scutellaria as the catalase activity inhibitor, diluting the scutellaria with ultrapure water, followed by sterilization by filtration through a 0.22 μm filter, and then adding the scutellaria solution to the mixture liquids of bacterium suspension and hydrogen peroxide to attain final scutellaria concentrations of 0, 1, and 3 mg/mL. [table] The laser irradiation was performed immediately after preparing the experiment samples, and 50 μL of the sample after the irradiation and 50 μL of 5000 U/mL catalase were mixed to stop the reaction of hydrogen peroxide. After that, a 10-fold dilution series was prepared and was seeded on a BHI agar culture medium, followed by culturing under an aerophilic condition of 37° C. for 24 hours, and then evaluation of the sterilization effect was conducted. […]

For `OO` [hydrogen peroxide], the sterilization effect entry is given as “no sterilization effect”.
